Reference: patent US20240318143A1, “POST-PROCESSING OF BIOLOGICAL SCAFFOLDS” (Lung Biotechnology PBC, priority 2023, published 2024)

What follows are sequences tested on PAECs (assay: PAEC attachment and morphology after 24 hours on discs surface modified with peptides (FIGS. 8A-10G, FIJI analysis)). Details: 24 hours after seeding, surface modification at 2 μmol/cm^2 and 0.2 μmol/cm^2 (Tests 1-3).
Type: cell-based
Experimental: For the experiments in FIGS. 7A-7S, 18 multi-wells were washed in 70% RA. The multi-wells were split into 6 groups of surface modification, which were P/G/A/B/F, PHSRNKRGD (SEQ ID NO: 9) (referred to as “PHK” in the figures), AG73, GFOGER (SEQ ID NO: 10), BM-Binder, and FN-Binder. Surface modification was conducted with the peptide solutions in Table 4. Peptides were prepared at 2 μmol/cm^2 concentrations for surface modification, but the actual concentration was adjusted for the thiol concentration. Following surface modification, wells were seeded with PAECs at a concentration of 625000 per cm^2. 24 hours after seeding, the wells were fix stained and imaged to quantify cell morphology. Model surface area was 10.1 cm^2.
FIGS. 8A-10G provide data on experiments to compare cell seeding and proliferation on surfaces with single peptide or combination peptide modification at different concentrations, 2 μmol/cm^2 and 0.2 μmol/cm^2. The solutions used for peptide modification had the actual peptide concentrations noted in Table 5.
FIGS. 8A-8G illustrate PAEC morphology after 24 hours on discs surface modified with various peptides at 2 μmol/cm^2 concentration according to Test 1. FIG. 8A are stained disk scans of PAECs cultured on 6 different surface modification peptides. FIGS. 8B-8G are graphs of FIJI analysis of circularity frequency distribution.
FIGS. 9A-9G illustrate PAEC morphology after 24 hours on discs surface modified with various peptides at 2 μmol/cm^2 concentration adjusted to the volume used in the PGABF′ condition according to Test 2. FIG. 9A are stained disk scans of PAECs cultured on 6 different surface modification peptides. FIGS. 9B-9G are graphs of FIJI analysis of circularity frequency distribution.
FIGS. 10A-10G illustrate PAEC morphology after 24 hours on discs surface modified with various peptides at 0.2 μmol/cm^2 concentration according to Test 3. FIG. 10A are stained disk scans of PAECs cultured on 6 different surface modification peptides. […] FIJI analysis is a method of quantifying stained disk scans. […]

With GCREISAFLGIPFAEPPMGPRRFLPPEPKKP [B] as the sequence, how does the “Cell attachment and morphology” value read?
Its value is “little cell attachment and those that were attached were round with little to no elongation”.

For GCREKKTLQPVYEYMVGV [F], which “Cell attachment and morphology” value is on record?
Its value is “little cell attachment and those that were attached were round with little to no elongation”.

How did the “Cell attachment and morphology” value turn out when “GCREKKRKRLQVQLSIRT [A, laminin-derived peptide recognized by syndecans]” was run?
The value was “some cells that were elongated but that did not have full stretching as seen in other test conditions, and an increase in rounder cells”.
